Data on one molecule can be found in patent US20240287048A1, “SUBSTITUTED ACYL SULFONAMIDES FOR TREATING CANCER” (The Broad Institute, Inc., priority 2020, published 2024).

Data set [1] concerns Salmonella tester strain TA98. Kind of data set: Bacterial reverse gene mutation test Ames MPF Penta I, TA98. Type of data set: cell-based. The source says: (§1) The employed commercial assay Ames MPF Penta I comprises the histidine auxotrophic Salmonella tester strains TA98, TA100, TA1535, TA1537 and two tryptophan auxotrophic tester strains E. coli wp2 (E. coli wp2 [pKM101] and E. coli wp2 uvrA, combined exposure). These strains meet the requirements of the OECD guideline 471 for testing chemicals.
(§2) Bacterial strains were exposed to various concentrations of the test compounds in a histidine (His) or tryptophane (Trp) deficient medium. As recommended by ICH S2(R1) guideline, the test was conducted in two assay conditions, with and without addition of microsomal enzymes (S9 mix), taking the potential formation of DNA reactive metabolites via xenobiotic biotransformation into account.
(§3) The potential of the test compound to induce gene mutations is assessed by comparing the control with the test compounds treated bacterial cultures.

For data set [2], the system named is LCLC-97TM1 cells. Kind of data set: Proliferation assay in LCLC-97TM1 cells. It is filed as cell-based. The settings on record: Homo sapiens, 144 h, Alamar Blue, read-out: LCLC97TM1 proliferation assay, EC50[M] (arithmetic mean). The method in brief: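 LCLC-97TM1 large-cell lung carcinoma cells were seeded at 6000 per well in RPMI 1640 with 2.5% FBS and exposed to compound for 144 h at 37 °C, 5% CO2, in triplicate. Viability was read by Alamar Blue fluorescence at 590 nm after 2 h.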
On the technique in general: Resazurin is reduced to fluorescent resorufin, in cell work by metabolically active cells.

The test system of data set [3] is Salmonella tester strain TA1535. Kind of data set: Bacterial reverse gene mutation test Ames MPF Penta I, TA1535. It is filed as cell-based.
Excerpt: as §1, §2, §3

Data set [4] relates to ESR1 transcription in MVLN cells. Briefly: Repression of ESR1 transcription, MVLN luciferase reporter assay. It is filed as cell-based. The settings on record: Homo sapiens, luciferase signal after 24 h, read-out: MVLN reporter assay, IC50[M] (arithmetic mean). The method in brief: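 MVLN cells stably carry an ER-responsive vitellogenin A2 element driving luciferase. After 24 h of compound treatment, luciferase was read in lysate as the measure of ERα transcription. Alamar Blue fluorescence (530/590 nm, 2 h) was read first to control for cell loss; samples were run in duplicate.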
A general note: Reporter assays use an easily measured gene product as a stand-in for the process of interest.

The subject of data set [5] is MDA-MB-436 cells. Kind of data set: Proliferation assay in MDA-MB-436 cells (negative control cell line). The settings on record: Homo sapiens, 144 h, Alamar Blue, read-out: MDA-MB-436 proliferation assay, EC50[M] (arithmetic mean). Type of data set: cell-based. In a few lines: (§4)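 KAT6A-amplified ZR-75-1 cells (RPMI 1640, 2.5% FBS) and KAT6A-low MDA-MB-436 cells (DMEM/Ham's F12, 2.5% FBS) were seeded at 3000 cells/well. Treatment lasted 144 h at 37 °C, 5% CO2, in triplicate. Viability was read by Alamar Blue (2 h) fluorescence at […].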

Data set [6] has as its system Salmonella tester strain TA1537. Briefly: Bacterial reverse gene mutation test Ames MPF Penta I, TA1537. Type of data set: cell-based.
Excerpt: as §1, §2, §3

Data set [7] has as its system Salmonella tester strain TA100. Briefly: Bacterial reverse gene mutation test Ames MPF Penta I, TA100. Type of data set: cell-based.
Excerpt: as §1, §2, §3

Data set [8] addresses T1, KAT6B (Homo sapiens, UniProt Q8WYB5).
T1 construct: fused on or other part: N-terminal GST tag
Briefly: Kat6b activity assay (TR-FRET, acetylation of biotinylated histone H4 peptide). The settings on record: recombinant human GST-tagged Kat6b (431-end), 30 mins at 22° C., read-out: KAT6B activity assay IC50 [mol/l] (arithmetic mean). Type of data set: biochemical. An excerpt:
Kat6b inhibitory activities of the compounds described in the present invention were quantified using a Fluorescence Resonance Energy Transfer (TR-FRET) assay which measures acetylation of a synthetic, biotinylated Histone-H4-derived peptide by the enzyme.
Recombinant human GST-tagged Kat6b protein (431-end, N-terminal GST-tag), purified from Baculovirus-infected insect cells (Sf9), was purchased from SignalChem (#K315-381BG). Histone H4 peptide (amino acids 1-24, […]-VLRD-K(Btn)-amide), which was used as substrate, was synthesized by Biosyntan GmbH, Berlin, Germany. Acetyl Coenzyme A was purchased from Sigma-Aldrich (#A-2056).
Kat6b was incubated for 30 mins at 22° C. in the presence of different concentrations of test substances (0 μM, and within the range 0.01-20 μM) in assay buffer [25 mM Tris/HCl pH 8, 1 mM EGTA, 2.5 mM Glutathion, 0.02% Chicken Albumin, 0.05% Pluronic F127, 25 mM NaCl, 500 nM H4 peptide and 600 nM Acetyl Coenzyme A].
The reaction was stopped by addition of Detection Solution (25 mM HEPES pH 7.5, 0.1% BSA, 22 nM SAXL665 (Cisbio #610SAXLE), 100 μM Anacardic Acid (Enzo #ALX-270-381), 1 nM Anti-Histone H4 (ACETYL K8) Antibody (ABCAM #AB15823), 0.5 nM Anti-Rabbit IgG Eu (Perkin Elmer #AD0083).
The fluorescence emission at 620 nm and 665 nm after excitation at 330-350 nm was measured in a TR-FRET measuring instrument, for instance a Rubystar or a Pherastar (both from BMG Lab Technologies, Offenburg, Germany) or a Viewlux (Perkin-Elmer). The ratio of the emission at 665 nm and at […] was used as indicator of the amount of acetylated peptide.
The resulting data (ratio) were normalized, taking 0% inhibition as the mean value of control measurements where all reagents were included. In this case 50 nl DMSO were used instead of compounds. […] IC50 values were determined by regression analysis based on a 4 parameter equation (minimum, maximum, ICM, Hill; Y=Max+(Min−Max)/(1+(X/ICso) Hill) using the Screener Software (Genedata).
(In general: TR-FRET usually uses a lanthanide donor and a delayed reading to cut background.)

The test system of data set [9] is E. coli wp2 (E. coli wp2 [pKM101] and E. coli wp2 uvrA, combined exposure). Kind of data set: Bacterial reverse gene mutation test Ames MPF Penta I, E. coli wp2. Type of data set: cell-based.
Excerpt: as §1, §2, §3

Data set [10] concerns ZR-75-1 cells. Briefly: Proliferation assay in ZR-75-1 cells. Type of data set: cell-based. Particulars: Homo sapiens, 144 h, Alamar Blue, read-out: ZR75-1 proliferation assay, EC50[M] (arithmetic mean). The method in brief: as §4

T1 sequence (Q8WYB5 723-2073 limits assumed): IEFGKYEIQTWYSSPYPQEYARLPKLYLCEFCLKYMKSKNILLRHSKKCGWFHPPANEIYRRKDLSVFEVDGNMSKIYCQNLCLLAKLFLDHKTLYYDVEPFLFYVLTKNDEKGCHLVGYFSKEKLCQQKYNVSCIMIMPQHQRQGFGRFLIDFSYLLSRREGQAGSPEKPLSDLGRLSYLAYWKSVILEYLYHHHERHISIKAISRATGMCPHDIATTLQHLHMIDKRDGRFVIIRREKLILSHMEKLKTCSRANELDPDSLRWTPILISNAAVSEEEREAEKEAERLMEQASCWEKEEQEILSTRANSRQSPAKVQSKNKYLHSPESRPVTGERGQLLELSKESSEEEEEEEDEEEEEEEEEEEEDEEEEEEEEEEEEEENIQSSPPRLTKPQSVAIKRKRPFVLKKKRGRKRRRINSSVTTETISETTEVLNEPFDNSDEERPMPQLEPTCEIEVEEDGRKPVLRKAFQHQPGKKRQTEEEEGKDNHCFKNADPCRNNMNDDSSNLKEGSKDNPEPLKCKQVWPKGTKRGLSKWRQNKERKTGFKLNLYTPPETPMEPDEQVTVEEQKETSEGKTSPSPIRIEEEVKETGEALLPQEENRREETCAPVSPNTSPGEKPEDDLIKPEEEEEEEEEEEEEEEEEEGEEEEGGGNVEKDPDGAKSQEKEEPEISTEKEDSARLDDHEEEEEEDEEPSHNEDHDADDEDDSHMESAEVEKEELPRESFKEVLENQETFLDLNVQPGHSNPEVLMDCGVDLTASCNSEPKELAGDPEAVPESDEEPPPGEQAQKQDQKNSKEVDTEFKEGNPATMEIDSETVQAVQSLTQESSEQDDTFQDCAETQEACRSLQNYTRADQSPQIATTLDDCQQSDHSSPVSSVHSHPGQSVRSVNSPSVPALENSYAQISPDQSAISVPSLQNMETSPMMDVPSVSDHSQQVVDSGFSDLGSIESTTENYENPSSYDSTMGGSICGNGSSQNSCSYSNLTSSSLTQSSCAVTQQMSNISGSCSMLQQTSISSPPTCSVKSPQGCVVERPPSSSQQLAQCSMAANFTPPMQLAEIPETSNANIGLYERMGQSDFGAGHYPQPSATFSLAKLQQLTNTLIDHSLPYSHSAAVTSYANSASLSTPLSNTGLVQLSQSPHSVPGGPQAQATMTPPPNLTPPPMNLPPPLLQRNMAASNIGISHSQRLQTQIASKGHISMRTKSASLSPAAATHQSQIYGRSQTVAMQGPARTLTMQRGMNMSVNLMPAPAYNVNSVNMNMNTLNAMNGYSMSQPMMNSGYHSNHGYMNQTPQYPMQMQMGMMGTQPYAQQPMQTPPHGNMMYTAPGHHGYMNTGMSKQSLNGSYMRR

As for `CCOc1ccccc1S(=O)(=O)NC(=O)c1cc2c(F)cc(C3CC3)cc2o1` [Example 25, 6-Cyclopropyl-N-(2-ethoxybenzene-1-sulfonyl)-4-fluoro-1-benzofuran-2-carboxamide], the “Result of the bacterial reverse gene mutation test Ames MPF Penta I, TA98” value in data set [1] (with addition of S9 mix) and in data set [1] (without addition of S9 mix) was “negative” in each case. The values for the EC50 in [2], in data set [5] and in [10] were above 2e-05 M, above 2e-05 M and 6.44e-07 M, respectively. For the same molecule, the “Result of the bacterial reverse gene mutation test Ames MPF Penta I, TA1535” value in [3] (with addition of S9 mix) and in [3] (without addition of S9 mix) was “negative” each time. The figures for the IC50 in [4] and in data set [8] were 5.42e-07 M and 28.4 nM, respectively. Moreover, the “Result of the bacterial reverse gene mutation test Ames MPF Penta I, TA1537” value in [6] (with addition of S9 mix) and in data set [6] (without addition of S9 mix) was “negative” in each case. Besides, the “Result of the bacterial reverse gene mutation test Ames MPF Penta I, TA100” value in data set [7] (with addition of S9 mix) and in data set [7] (without addition of S9 mix) was “negative” each time. Besides, the “Result of the bacterial reverse gene mutation test Ames MPF Penta I, E. coli wp2” value in [9] (with addition of S9 mix) and in data set [9] (without addition of S9 mix) was “negative” each time.
